Active and inactive are the calls of the source.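 The calls were made as follows: active = IC50 at or below 20 µM; inactive = the rest.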
The molecules below were run against Glucose-6-phosphate 1-dehydrogenase (Homo sapiens) (UniProt P11413) (assay: human G6PD enzyme inhibitors, SAR follow-up, selectivity assay for P. falciparum G6PD inhibitor project, biochemical, fluorescence, dose response (AID 588414)). Details: NADPH-diaphorase-resazurin fluorescence.
Glucose-6-phosphate 1-dehydrogenase (Homo sapiens), sequence (P11413 whole entry, looked up): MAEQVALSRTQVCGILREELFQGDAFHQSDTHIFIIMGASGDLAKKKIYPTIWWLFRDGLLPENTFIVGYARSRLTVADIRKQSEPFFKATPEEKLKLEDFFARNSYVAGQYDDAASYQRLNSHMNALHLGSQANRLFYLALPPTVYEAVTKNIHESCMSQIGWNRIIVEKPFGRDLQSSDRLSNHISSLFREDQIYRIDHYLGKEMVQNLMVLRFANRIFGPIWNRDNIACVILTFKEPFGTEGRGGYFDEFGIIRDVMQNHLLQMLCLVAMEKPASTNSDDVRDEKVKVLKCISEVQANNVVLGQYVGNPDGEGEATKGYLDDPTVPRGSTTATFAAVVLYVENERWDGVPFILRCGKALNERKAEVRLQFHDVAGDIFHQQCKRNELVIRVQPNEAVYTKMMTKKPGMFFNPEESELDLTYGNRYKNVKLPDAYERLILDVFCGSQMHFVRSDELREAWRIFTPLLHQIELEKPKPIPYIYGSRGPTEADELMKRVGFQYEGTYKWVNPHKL

IC50, inactive:
CCN(CC)CCNC(=O)c1ccc2c(c1)NC(=O)/C(=C\c1ccc(OC)c(OC)c1)S2 > 80 µM
CCN1CCCC1CNC(=O)c1ccc2c(c1)N(Cc1ccc(C(F)(F)F)cc1)C(=O)c1ccccc1S2 (stereo not drawn) > 80 µM
Cc1ccccc1C(=O)Nc1nnc(S(=O)(=O)N2CCCCCC2)s1 > 80 µM
O=C(Nc1nnc(S(=O)(=O)N2CCCCCC2)s1)c1ccc(F)cc1 > 80 µM
O=C(Nc1nnc(S(=O)(=O)N2CCCCCC2)s1)c1cccc(Br)c1 > 80 µM
COc1ccccc1C(=O)Nc1nnc(S(=O)(=O)N2CCCCCC2)s1 > 80 µM
COc1cccc(/C=C2/Sc3ccc(C(=O)NCCN4CCCC4)cc3NC2=O)c1 > 80 µM
COc1ccc(/C=C2/Sc3ccc(C(=O)NCCN4CCCC4)cc3NC2=O)cc1 > 80 µM
Cc1ccc(C(=O)Nc2nnc(S(=O)(=O)N3c4ccccc4CC3C)s2)cc1 (stereo not drawn) > 80 µM
CCN(CC)CCNC(=O)c1ccc2c(c1)N(Cc1ccc(C)cc1)C(=O)c1ccccc1S2 > 80 µM
CCN1CCCC1CNC(=O)c1ccc2c(c1)N(Cc1ccccc1Cl)C(=O)c1ccccc1S2 (stereo not drawn) > 80 µM
COc1cccc(C(=O)Nc2nnc(S(=O)(=O)N3CCCCCC3)s2)c1 > 80 µM
COc1ccc(/C=C2/Sc3ccc(C(=O)NCCN4CCCCCC4)cc3NC2=O)cc1 > 80 µM
CCN(CC)CCNC(=O)c1ccc2c(c1)NC(=O)/C(=C/c1ccccc1)S2 > 80 µM
Cc1cccc(C(=O)Nc2nnc(S(=O)(=O)N3CCCc4ccccc43)s2)c1 > 80 µM
CCN(CC)CCNC(=O)c1ccc2c(c1)N(Cc1ccccc1Cl)C(=O)c1ccccc1S2 > 80 µM
CC1Cc2ccccc2N1S(=O)(=O)c1nnc(NC(=O)c2cccc(Br)c2)s1 (stereo not drawn) > 80 µM
CCN1CCCC1CNC(=O)c1ccc2c(c1)NC(=O)/C(=C\c1ccc(C)cc1)S2 (stereo not drawn) > 80 µM
CCN1CCCC1CNC(=O)c1ccc2c(c1)NC(=O)c1ccccc1S2 (stereo not drawn) > 80 µM
Cc1ccc(C(=O)Nc2nnc(S(=O)(=O)N3CCCCCC3)s2)cc1 > 80 µM
CC1Cc2ccccc2N1S(=O)(=O)c1nnc(NC(=O)c2cccc(F)c2)s1 (stereo not drawn) > 80 µM
Cc1ccc(C(=O)Nc2nnc(S(=O)(=O)N3CCCc4ccccc43)s2)cc1 > 80 µM
O=C(Nc1nnc(S(=O)(=O)N2CCCCCC2)s1)c1ccco1 > 80 µM
COc1ccc(C(=O)Nc2nnc(S(=O)(=O)N3CCCCCC3)s2)cc1OC > 80 µM
COc1ccc(/C=C2/Sc3ccc(C(=O)NCCN(C)C)cc3NC2=O)cc1 > 80 µM
CCN(CC)CCNC(=O)c1ccc2c(c1)NC(=O)/C(=C\c1cccc(C)c1)S2 > 80 µM
Cc1cccc(C(=O)Nc2nnc(S(=O)(=O)N3CCCCCC3)s2)c1 > 80 µM
COc1ccc(C(=O)Nc2nnc(S(=O)(=O)N3CCCCCC3)s2)cc1 > 80 µM
CCN(CC)CCNC(=O)c1ccc2c(c1)N(Cc1cc(C)ccc1C)C(=O)c1ccccc1S2 > 80 µM
CCC(C)N(CCNC(=O)c1ccc2c(c1)NC(=O)c1ccccc1S2)C1CCCCC1 (stereo not drawn) > 80 µM
O=C1Nc2cc(C(=O)NCCN3CCCCCC3)ccc2S/C1=C/c1ccccc1Cl > 80 µM
CCN1CCCC1CNC(=O)c1ccc2c(c1)NC(=O)/C(=C/c1ccccc1F)S2 (stereo not drawn) > 80 µM
O=C(Nc1nnc(S(=O)(=O)N2CCOCC2)s1)c1cccc(F)c1 > 80 µM
Cc1ccccc1C(=O)Nc1nnc(S(=O)(=O)N2CCCc3ccccc32)s1 > 80 µM
CCN(CCNC(=O)c1ccc2c(c1)N(CC)C(=O)c1ccccc1S2)c1ccccc1 > 80 µM
Cc1cccc(N2CCN(CCNC(=O)c3ccc4c(c3)NC(=O)c3ccccc3S4)CC2)c1C > 80 µM
CCN(CC)CCNC(=O)c1ccc2c(c1)NC(=O)/C(=C\c1ccccc1F)S2 > 80 µM
O=C(Nc1nnc(S(=O)(=O)N2CCCc3ccccc32)s1)c1cccc(F)c1 > 80 µM
O=C1Nc2cc(C(=O)NCCN3CCCCCC3)ccc2S/C1=C/c1ccccc1F > 80 µM
CN(C)CCNC(=O)c1ccc2c(c1)NC(=O)/C(=C\c1ccccc1F)S2 > 80 µM
O=C(Nc1nnc(S(=O)(=O)N2CCCCCC2)s1)c1ccccc1F > 80 µM
O=C1Nc2cc(C(=O)NCCN3CCCC3)ccc2S/C1=C/c1ccccc1F > 80 µM
O=C(Nc1nnc(S(=O)(=O)N2CCCCC2)s1)c1cccc(F)c1 > 80 µM
CCN(CC)CCNC(=O)c1ccc2c(c1)NC(=O)/C(=C\c1ccccc1Cl)S2 > 80 µM
CN(CCNC(=O)c1ccc2c(c1)NC(=O)c1ccccc1S2)C1CCCCC1 > 80 µM
CCN1CCCC1CNC(=O)c1ccc2c(c1)NC(=O)/C(=C\c1ccccc1Cl)S2 (stereo not drawn) > 80 µM
CCCN(CCC)CCNC(=O)c1ccc2c(c1)NC(=O)/C(=C/c1ccccc1)S2 > 80 µM
COc1cccc(/C=C2/Sc3ccc(C(=O)NCCN4CCCCCC4)cc3NC2=O)c1 > 80 µM
O=C(Nc1nnc(S(=O)(=O)N2CCCCCC2)s1)C1CCCCC1 > 80 µM
Cc1cccc(C(=O)Nc2nnc(S(=O)(=O)N3c4ccccc4CC3C)s2)c1 (stereo not drawn) > 80 µM
O=C(Nc1nnc(S(=O)(=O)N2CCCCCC2)s1)c1cccc(F)c1 > 80 µM
CCN(CC)CCNC(=O)c1ccc2c(c1)NC(=O)/C(=C\c1ccc(OC)cc1)S2 > 80 µM
CCN(CCNC(=O)c1ccc2c(c1)NC(=O)c1ccccc1S2)c1ccccc1 > 80 µM
Cc1cccc(/C=C2/Sc3ccc(C(=O)NCCN4CCCC4)cc3NC2=O)c1 > 80 µM
CCN(CC)CCNC(=O)c1ccc2c(c1)NC(=O)c1ccccc1S2 > 80 µM
Cc1cccc(C(=O)Nc2nnc(S(=O)(=O)N3CCC(C)CC3)s2)c1 > 80 µM
O=C(Nc1nnc(S(=O)(=O)N2CCCCCC2)s1)c1ccccc1 > 80 µM
CCN1CCCC1CNC(=O)c1ccc2c(c1)N(Cc1ccccc1F)C(=O)c1ccccc1S2 (stereo not drawn) > 80 µM
CCOc1ccc(C(=O)Nc2nnc(S(=O)(=O)N3CCCCCC3)s2)cc1 > 80 µM
CCN1CCCC1CNC(=O)c1ccc2c(c1)NC(=O)/C(=C\c1ccccc1F)S2 (stereo not drawn) > 80 µM
CCCN(CCC)CCNC(=O)c1ccc2c(c1)NC(=O)/C(=C\c1ccc(C)cc1)S2 > 80 µM
O=C(Nc1nnc(S(=O)(=O)N2CCCCCC2)s1)c1cccc(Cl)c1 > 80 µM
CCN(CCNC(=O)c1ccc2c(c1)N(Cc1cc(C)ccc1C)C(=O)c1ccccc1S2)c1ccccc1 > 80 µM
Cc1ccc(CN2C(=O)c3ccccc3Sc3ccc(C(=O)NCCN(C)C)cc32)cc1 > 80 µM
CN(C)CCNC(=O)c1ccc2c(c1)NC(=O)/C(=C\c1cccc(Cl)c1)S2 > 80 µM
O=C1Nc2cc(C(=O)NCCN3CCCC3)ccc2S/C1=C/c1ccccc1Cl > 80 µM
Cc1cccc(C(=O)Nc2nnc(S(=O)(=O)N3CCOCC3)s2)c1 > 80 µM
CCN1CCCC1CNC(=O)c1ccc2c(c1)N(Cc1cccc(F)c1)C(=O)c1ccccc1S2 (stereo not drawn) > 80 µM

From PubChem BioAssay AID588414 (Sanford-Burnham Center for Chemical Genomics, 2011)
